Drawing on patent publication US20240262826A1, “WILD TYPE KIT INHIBITORS” (Blueprint Medicines Corporation, priority 2022, published 2024), this text covers efflux ratio and IC50 for 17 compounds.

The target in data set [1] is human P-glycoprotein (P-gp, MDR1) (Homo sapiens (Human), UniProt P08183). The data set can be described thus: MDCK-MDR1 cell monolayer drug transport assay (P-gp efflux ratio). Type of data set: in vitro ADME. The following applies: pH 7.4, MDCK-MDR1 cells, 1 uM concentration of compound, read-out: Pgp Efflux Ratio, 1 uM. The essentials: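 P-gp substrate potential tested in MDCK-MDR1 monolayers on Transwell supports, cultured 4-8 days; monolayers with TEER <42 ohms·cm2 discarded. Transport run in HBSS (10 mM HEPES, pH 7.4) at 37° C with compound working solution at 1 μM.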

Another data set has as its target wild type c-kit (Homo sapiens (Human), UniProt P10721). The data set can be described thus: PathScan phospho c-kit (Tyr719) sandwich ELISA in SCF-stimulated M-07e cells (pKIT assay). Type of data set: cell-based. Particulars: ELISA assay (values not marked *). The essentials:
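Serum- and GM-CSF-starved M-07e cells (4 h) pretreated 60 min at 37 °C with an 8-point compound series in duplicate (0.25% DMSO), then stimulated with human SCF (500 ng/mL stock) 10 min at room temperature. Lysate c-kit Tyr719 phosphorylation quantified by sandwich ELISA with TMB read-out; IC50 from 4-parameter logistic fit.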

Sequence of wild type c-kit (P10721 26-976): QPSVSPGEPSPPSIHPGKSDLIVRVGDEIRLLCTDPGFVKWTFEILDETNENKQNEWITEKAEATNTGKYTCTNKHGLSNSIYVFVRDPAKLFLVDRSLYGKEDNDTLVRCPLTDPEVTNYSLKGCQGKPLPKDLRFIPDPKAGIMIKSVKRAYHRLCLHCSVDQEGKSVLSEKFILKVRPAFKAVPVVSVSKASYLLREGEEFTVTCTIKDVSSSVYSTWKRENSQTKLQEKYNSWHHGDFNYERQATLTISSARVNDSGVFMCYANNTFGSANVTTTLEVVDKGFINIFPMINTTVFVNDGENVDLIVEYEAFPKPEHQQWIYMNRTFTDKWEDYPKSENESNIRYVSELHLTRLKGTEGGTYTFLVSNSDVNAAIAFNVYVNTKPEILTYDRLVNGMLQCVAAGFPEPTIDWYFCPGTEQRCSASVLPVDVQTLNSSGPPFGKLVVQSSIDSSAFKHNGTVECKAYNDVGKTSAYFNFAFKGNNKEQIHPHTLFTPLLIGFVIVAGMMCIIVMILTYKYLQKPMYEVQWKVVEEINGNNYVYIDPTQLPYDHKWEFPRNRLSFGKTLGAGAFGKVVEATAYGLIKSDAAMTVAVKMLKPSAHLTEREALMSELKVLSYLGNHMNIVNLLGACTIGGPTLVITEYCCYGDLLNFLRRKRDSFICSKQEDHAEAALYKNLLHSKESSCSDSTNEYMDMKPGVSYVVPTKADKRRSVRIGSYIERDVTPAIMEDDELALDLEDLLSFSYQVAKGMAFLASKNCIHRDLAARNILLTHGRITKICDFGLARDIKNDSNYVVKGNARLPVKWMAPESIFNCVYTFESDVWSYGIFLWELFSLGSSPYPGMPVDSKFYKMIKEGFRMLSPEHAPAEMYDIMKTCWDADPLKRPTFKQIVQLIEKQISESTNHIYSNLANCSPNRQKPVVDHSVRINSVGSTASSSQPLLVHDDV
Sequence of human P-glycoprotein (P-gp, MDR1) (P08183 whole entry): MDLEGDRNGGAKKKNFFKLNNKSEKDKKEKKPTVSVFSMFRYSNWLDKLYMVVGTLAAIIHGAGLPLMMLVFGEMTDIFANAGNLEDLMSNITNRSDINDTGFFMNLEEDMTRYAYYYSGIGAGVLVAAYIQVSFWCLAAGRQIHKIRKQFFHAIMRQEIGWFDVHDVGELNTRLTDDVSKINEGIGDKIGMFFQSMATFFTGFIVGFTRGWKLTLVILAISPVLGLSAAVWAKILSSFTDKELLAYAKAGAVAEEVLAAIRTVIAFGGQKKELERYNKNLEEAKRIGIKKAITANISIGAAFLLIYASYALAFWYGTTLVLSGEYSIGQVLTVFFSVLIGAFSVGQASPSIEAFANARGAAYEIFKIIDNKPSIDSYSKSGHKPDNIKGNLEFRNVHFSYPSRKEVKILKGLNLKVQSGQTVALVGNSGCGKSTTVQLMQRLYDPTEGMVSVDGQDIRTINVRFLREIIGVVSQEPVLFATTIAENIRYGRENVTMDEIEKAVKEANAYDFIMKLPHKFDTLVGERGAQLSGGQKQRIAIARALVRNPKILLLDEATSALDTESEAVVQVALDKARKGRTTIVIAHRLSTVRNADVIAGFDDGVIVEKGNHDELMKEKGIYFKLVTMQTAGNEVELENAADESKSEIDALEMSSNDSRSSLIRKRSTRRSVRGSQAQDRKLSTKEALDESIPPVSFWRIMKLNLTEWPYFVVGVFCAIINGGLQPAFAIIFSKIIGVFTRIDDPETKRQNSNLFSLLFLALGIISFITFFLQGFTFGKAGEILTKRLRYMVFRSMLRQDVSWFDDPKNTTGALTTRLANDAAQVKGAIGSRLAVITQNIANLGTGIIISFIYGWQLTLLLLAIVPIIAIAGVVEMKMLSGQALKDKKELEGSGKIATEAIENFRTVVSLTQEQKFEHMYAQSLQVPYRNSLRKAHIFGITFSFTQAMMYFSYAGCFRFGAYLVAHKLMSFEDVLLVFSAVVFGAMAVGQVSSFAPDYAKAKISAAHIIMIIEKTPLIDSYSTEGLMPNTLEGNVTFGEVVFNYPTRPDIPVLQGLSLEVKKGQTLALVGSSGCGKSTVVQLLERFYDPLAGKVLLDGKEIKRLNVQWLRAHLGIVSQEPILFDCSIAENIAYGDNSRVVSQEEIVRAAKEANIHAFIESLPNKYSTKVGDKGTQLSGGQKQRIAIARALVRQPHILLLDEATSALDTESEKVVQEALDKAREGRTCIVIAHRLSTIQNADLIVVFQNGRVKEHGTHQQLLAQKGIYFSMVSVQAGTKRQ

Take `COC(=O)N1CC(c2cnn(-c3ccc(C)c(NC(=O)c4cnn5ccc(N6CCOCC6)cc45)c3)n2)C1` [Example 80, methyl 3-(2-(4-methyl-3-(5-morpholinopyrazolo[1,5-a]pyridine-3-carboxamido)phenyl)-2H-1,2,3-triazol-4-yl)azetidine-1-carboxylate]: the efflux ratio at 2 h, 1 µM in data set [1] worked out at 4. This compound had an IC50 against wild type c-kit of 9.2 nM.

Consider `Cc1nnn(-c2ccc(C)c(NC(=O)c3cnn4ccc(-c5cnn(CC(C)(C)O)c5)cc34)c2)n1` [Example 209, 5-(1-(2-hydroxy-2-methylpropyl)-1H-pyrazol-4-yl)-N-(2-methyl-5-(5-methyl-2H-tetrazol-2-yl)phenyl)pyrazolo[1,5-a]pyridine-3-carboxamide], for which the efflux ratio at 2 h, 1 µM in data set [1] was determined as 4.3. On wild type c-kit, the IC50 was found to be 6.9 nM.

For `COC[C@@H](O)Cn1ncc(-c2ccn3ncc(C(=O)Nc4cc(-c5nnn(C6CC6)n5)ccc4Cl)c3c2)c1C` [Example 248, (S)-N-(2-chloro-5-(2-cyclopropyl-2H-tetrazol-5-yl)phenyl)-5-(1-(2-hydroxy-3-methoxypropyl)-5-methyl-1H-pyrazol-4-yl)pyrazolo[1,5-a]pyridine-3-carboxamide], in data set [1], the efflux ratio at 2 h, 1 µM turned out to be 3.5. On wild type c-kit, this compound displayed an IC50 of 0.6 nM.

For `Cc1cnn(-c2ccc(C)c(NC(=O)c3cnn4ccc(-c5cnn(CCO)c5)cc34)c2)n1` [Example 57, 5-(1-(2-hydroxyethyl)-1H-pyrazol-4-yl)-N-(2-methyl-5-(4-methyl-2H-1,2,3-triazol-2-yl)phenyl)pyrazolo[1,5-a]pyridine-3-carboxamide], the efflux ratio at 2 h, 1 µM in data set [1] was determined as 3.4. Further, the IC50 on wild type c-kit amounted to 4 nM.

Turning to `COC(=O)N1CC(n2nnc(-c3ccc(C)c(NC(=O)c4cnn5ccc(OCCC(C)(C)O)cc45)c3)n2)C1` [Example 65, methyl 3-(5-(3-(5-(3-hydroxy-3-methylbutoxy)pyrazolo[1,5-a]pyridine-3-carboxamido)-4-methylphenyl)-2H-tetrazol-2-yl)azetidine-1-carboxylate], in data set [1], the efflux ratio at 2 h, 1 µM was 23.5. Besides, the IC50 on wild type c-kit is 33.7 nM.

Consider `CCOC(=O)N1CC(n2nnc(-c3ccc(C)c(NC(=O)c4cnn5ccc(NC)cc45)c3)n2)C1` [Example 126, ethyl 3-(5-(4-methyl-3-(5-(methylamino)pyrazolo[1,5-a]pyridine-3-carboxamido)phenyl)-2H-tetrazol-2-yl)azetidine-1-carboxylate], for which the efflux ratio at 2 h, 1 µM in data set [1] was determined as 15.9. Further, the IC50 against wild type c-kit was 10.3 nM.

Turning to `COCCNc1ccn2ncc(C(=O)Nc3cc(-n4ncc(C5CN(C(=O)OC)C5)n4)ccc3C)c2c1` [Example 110, methyl 3-(2-(3-(5-((2-methoxyethyl)amino)pyrazolo[1,5-a]pyridine-3-carboxamido)-4-methylphenyl)-2H-1,2,3-triazol-4-yl)azetidine-1-carboxylate], the efflux ratio at 2 h, 1 µM in data set [1] was 8.7. Besides, the IC50 against wild type c-kit amounted to 17.7 nM.

As for `Cc1ccc(-c2nnn(C3CC(F)(F)C3)n2)cc1NC(=O)c1cnn2ccc(NCCO)cc12` [Example 101, N-(5-(2-(3,3-difluorocyclobutyl)-2H-tetrazol-5-yl)-2-methylphenyl)-5-((2-hydroxyethyl)amino)pyrazolo[1,5-a]pyridine-3-carboxamide], the efflux ratio at 2 h, 1 µM in data set [1] came to 16. The IC50 against wild type c-kit was found to be 5.2 nM.

In the case of `COCCNc1cc2c(C(=O)Nc3cc(-c4nnn(C5CN(C(=O)OC)C5)n4)ccc3C)cnn2cc1Cl` [Example 145, methyl 3-(5-(3-(6-chloro-5-((2-methoxyethyl)amino)pyrazolo[1,5-a]pyridine-3-carboxamido)-4-methylphenyl)-2H-tetrazol-2-yl)azetidine-1-carboxylate], in data set [1], the efflux ratio at 2 h, 1 µM is 6.4. Also, at wild type c-kit, 157 nM corresponded to half-maximal inhibition (IC50).

Consider `Cc1ccc(-c2nnn(C(C)C)n2)cc1NC(=O)c1cnn2ccc(-c3cnn(CCO)c3)cc12` [Example 49, 5-(1-(2-hydroxyethyl)-1H-pyrazol-4-yl)-N-(5-(2-isopropyl-2H-tetrazol-5-yl)-2-methylphenyl)pyrazolo[1,5-a]pyridine-3-carboxamide], for which the efflux ratio at 2 h, 1 µM in data set [1] stood at 14. Half-maximal inhibition on wild type c-kit (IC50) required 1.3 nM.

For `Cc1ccc(-c2nnn([C@H]3C[C@@H](C(F)(F)F)C3)n2)cc1NC(=O)c1cnn2ccc(NCCO)cc12` [Example 120, 5-((2-hydroxyethyl)amino)-N-(2-methyl-5-(2-((1s,3s)-3-(trifluoromethyl)cyclobutyl)-2H-tetrazol-5-yl)phenyl)pyrazolo[1,5-a]pyridine-3-carboxamide or 5-((2-hydroxyethyl)amino)-N-(2-methyl-5-(2-((1r,3r)-3-(trifluoromethyl)cyclobutyl)-2H-tetrazol-5-yl)phenyl)pyrazolo[1,5-a]pyridine-3-carboxamide], the efflux ratio at 2 h, 1 µM in data set [1] came out at 35.9. This compound returned an IC50 against wild type c-kit of 4.1 nM.

For `Cc1nnn(-c2ccc(C)c(NC(=O)c3cnn4ccc(-c5cnn(CCO)c5)cc34)c2)n1` [Example 51, 5-(1-(2-hydroxyethyl)-1H-pyrazol-4-yl)-N-(2-methyl-5-(5-methyl-2H-tetrazol-2-yl)phenyl)pyrazolo[1,5-a]pyridine-3-carboxamide], the efflux ratio at 2 h, 1 µM in data set [1] is 5.5. This compound gave an IC50 against wild type c-kit of 27.4 nM.

In the case of `COC[C@@H](O)Cn1cc(-c2ccn3ncc(C(=O)Nc4cc(-c5nnn(C6CC6)n5)c(C)cc4Cl)c3c2)cn1` [Example 252, (S)-N-(2-chloro-5-(2-cyclopropyl-2H-tetrazol-5-yl)-4-methylphenyl)-5-(1-(2-hydroxy-3-methoxypropyl)-1H-pyrazol-4-yl)pyrazolo[1,5-a]pyridine-3-carboxamide], the efflux ratio at 2 h, 1 µM in data set [1] turned out to be 5.1. The IC50 at wild type c-kit is 3.7 nM.

Take `Cc1ccc(-n2nnc(C3CC3)n2)cc1NC(=O)c1cnn2ccc(-c3cnn(CC(C)(C)O)c3)cc12` [Example 225, N-(5-(5-cyclopropyl-2H-tetrazol-2-yl)-2-methylphenyl)-5-(1-(2-hydroxy-2-methylpropyl)-1H-pyrazol-4-yl)pyrazolo[1,5-a]pyridine-3-carboxamide]: the efflux ratio at 2 h, 1 µM in data set [1] was determined as 3.3. Also, inhibition against wild type c-kit was half-maximal at 1.7 nM (IC50).

As to `Cc1ccc(-n2nnc(C3CC3)n2)cc1NC(=O)c1cnn2cc(-c3cnn(CC4(O)CCOCC4)c3)cc(F)c12` [Example 277, N-(5-(5-cyclopropyl-2H-tetrazol-2-yl)-2-methylphenyl)-4-fluoro-6-(1-((4-hydroxytetrahydro-2H-pyran-4-yl)methyl)-1H-pyrazol-4-yl)pyrazolo[1,5-a]pyridine-3-carboxamide], the efflux ratio at 2 h, 1 µM in data set [1] came to 3. Besides, on wild type c-kit, the IC50 was 0.5 nM.

For the compound `Cc1cc(C#N)c(-c2nnn(C3CC(F)(F)C3)n2)cc1NC(=O)c1cnn2ccc(N3CCOCC3)cc12` [Example 165, N-(4-cyano-5-(2-(3,3-difluorocyclobutyl)-2H-tetrazol-5-yl)-2-methylphenyl)-5-morpholinopyrazolo[1,5-a]pyridine-3-carboxamide], in data set [1], the efflux ratio at 2 h, 1 µM stood at 6.6. In addition, the IC50 on wild type c-kit stood at 26.6 nM.

Turning to `Cc1ccc(-c2nnn(C)n2)cc1NC(=O)c1cnn2ccc(-c3cnn(CCO)c3)cc12` [Example 47, 5-(1-(2-hydroxyethyl)-1H-pyrazol-4-yl)-N-(2-methyl-5-(2-methyl-2H-tetrazol-5-yl)phenyl)pyrazolo[1,5-a]pyridine-3-carboxamide], in data set [1], the efflux ratio at 2 h, 1 µM came out at 16. The same compound showed an IC50 against wild type c-kit of 9.8 nM.

As a reminder, the IC50 is the concentration needed to halve the response being measured. A high value points to weaker potency in that assay.
